Experimental data: patent US11510980B2, “Brartemicin analogues” (VICTORIA LINK LTD, priority 2017, dated 2022)
“Also recorded” adds a separate entry of the source.

Columns and labels:
hMincle+FcRγ = molecular target: T1, hMincle+FcRγ (Homo sapiens, UniProt Q9ULY5); test: 2B4-NFAT-GFP reporter cells expressing hMincle+FcRγ; format: cell-based; conditions: ligand-coated plates 0.01, 0.1 or 1 nmol/well, 18 hours
T1 construct: expressed in transfected cells; host or cells: 2B4-NFAT-GFP reporter cells
T1 sequence (Q9ULY5 1-219): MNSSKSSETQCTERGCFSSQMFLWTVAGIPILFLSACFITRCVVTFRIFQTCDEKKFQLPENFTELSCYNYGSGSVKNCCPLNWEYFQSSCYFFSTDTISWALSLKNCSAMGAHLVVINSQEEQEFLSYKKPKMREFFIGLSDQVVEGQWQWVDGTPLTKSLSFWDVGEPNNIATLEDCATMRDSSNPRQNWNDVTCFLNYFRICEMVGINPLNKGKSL
Protocol: (§1) Preparation of ligand-coated plates: Brartemicin analogues 9a-9i, TDM (Carbosynth, Sigma Aldrich), and TDB^14 were dissolved in CHCl3:MeOH (2:1, 1 mM), diluted in isopropanol ([…]) and added to 96-well plates (20 μL/well). The solvents were evaporated and the coated plates were used immediately.
2B4-NFAT-GFP reporter cells: 2B4-NFAT-GFP reporter cells expressing mMincle+FcRγ, hMincle+FcRγ, or FcRγ only have been previously described. […] The reporter cells were harvested, stained with propidium iodide, and analysed for NFAT-GFP expression using flow cytometry (FACS Calibur).
To determine whether the Mincle binding observed in Example 1 correlated with cellular activation, nuclear factor of activated T cells (NFAT)-green fluorescent protein (GFP) reporter cells expressing mMincle or hMincle coupled to FcRγ were stimulated using plates coated with TDM, TDB, brartemicin (9i), or analogues 9a-9h.
Activation of the reporter cells was measured through the production of GFP, which was monitored by flow cytometry (FIGS. 1b and 3c).
With the compounds 43a-h in hand, the ability of these analogues to bind and signal through Mincle was assessed (FIG. 5). Accordingly, NFAT-GFP reporter cells expressing mMincle+FcRγ, hMincle+FcRγ, or FcRγ-only were stimulated with the 2G-brartemicin analogues 43a-h, TDB, iPrOH, or the p-OC18H37 substituted analogue, 9f. Reporter cell activation was measured by the production of NFAT-GFP, which was analysed by flow cytometry.

wild-type GM-CSF BMDMs = test: Cytokine/chemokine production by wild-type GM-CSF BMDMs on ligand-coated plates; format: cell-based, C57BL/6 mice; conditions: wild-type BMDMs, coated plates 0.1 or 1 nmol/well, 24 hours, ELISA
Protocol: as §1
Murine bone-marrow derived macrophages: For the preparation of murine bone-marrow derived macrophages, bone marrow cells were collected from the tibias and femurs of C57BL/6 mice and cultured (250,000 cells/mL) in complete RPMI media [RPMI-1640 (Gibco) with 10% heat inactivated fetal bovine serum (Gibco), 100 unit/mL penicillin-streptomycin (Gibco) and 2 mM Glutamax (Gibco)] supplemented with 50 ng/mL GM-CSF (clone X63/GM-CSF murine cells). Cells were incubated at 37° C. (5% CO2) for 8 days (cells fed by replacing half the media on days 3 and 6). On day 8, all media was removed and the cells were washed with Dulbecco's Phosphate-Buffered Saline (DPBS, Gibco) to remove any loosely-adherent cells. The BMDMs were harvested with StemPro Acutase (1 mL/well, 15 minutes at room temperature, Gibco) and seeded onto a pre-coated 96-well plate. The supernatant was collected and analysed for cytokine/chemokine production after 24 hours.
Cytokine analysis: IL-1β, IFN-γ, IL-6, TNF-α (BD Biosciences), IL-17, and MIP-2 (R&D) levels were determined via sandwich ELISA according to the manufacturer's instructions.
First, the ability of the compounds to activate GM-CSF BMDMs was determined by monitoring the secretion of the inflammatory cytokines TNF, IL-6, and IL-1β and the chemokine, MIP-2, in a ligand-coated plate assay (FIG. 2).
To gain insight into the capacity of the 2G-series of brartemicin analogues to induce an inflammatory immune response, the analogues were then screened for their ability to activate WT and Mincle^−/− BMDMs, with cellular activation being determined by the measurement of IL-1B using ELISA (FIG. 6).

C57BL/6 mice = test: Delayed-type hypersensitivity immunisation with OVA in oil-in-water emulsion; format: in vivo; conditions: for Th1 immune response / adjuvant activity in vivo: oil-in-water emulsion
Protocol: Delayed-type hypersensitivity: Mice were sensitised by subcutaneous injection with oil-in-water emulsions (mineral oil/Tween-80/PBS, 9:1:90, v/v/v) containing OVA only (200 μg), OVA+TDB (OVA=200 μg, TDB=0.3 μmol), OVA+9a (OVA=200 μg, 9a=0.3 μmol) or no OVA. After seven days, the mice were challenged with OVA (100 μg/footpad) and after a further seven days, the mice were sacrificed and their spleens harvested. For in vitro restimulation, splenocytes were restimulated with OVA and analysed for spenocyte number (measured at 450 nm after 3 hours, Cell Count Reagent SF, Nacalai Tesque Inc.), IFN-γ production, and IL-17 production. Footpad swelling was measured using a venier caliper pre-challenge, 24 hours post-challenge, and 48 hours post-challenge. Sera were collected from each mouse on days 0, 7, and 14 and analysed for OVA-specific antibody titers by ELISA using HRP coupled goat anti-mouse IgG (GE Health-care), IgG1, IgG2b, IgG2c, and IgG3 (SouthernBiotec). EC50 were defined by plotting the absorbance at 450 nm against log of serum concentration. Antibody titration curves were plotted using GraphPad Prism7 (GraphPad Software).
Compound 9a was then evaluated in vivo to confirm its capacity to induce a Th1 antigen-specific response using a delayed-type hypersensitivity immunisation protocol. To this end, four groups of C57BL/6 mice were immunised by subcutaneous injection with oil-in-water emulsions containing either OVA only, OVA+C18dMeBrar (9a), OVA+TDB, or no OVA. After seven days the mice were challenged with OVA (100 μg per footpad) and after a further seven days, the splenocytes were isolated and restimulated with OVA at three concentrations (10, 30, or 100 μg/mL). The immune response was measured by determining footpad swelling, production of IFN-γ and IL-17 (FIG. 7b), T cell proliferation (FIG. 4a), and antibody titres (FIG. 4c). […] Accordingly, the ability of C18dMeBrar (9a) to lead to an enhanced Th1 immune response was even more striking. This overall immune profile was also reflected in the antibody production by immunised mice. […] A high IgG2c:IgG1 ratio is commonly associated with Th1 responses and a lower ratio is associated with Th2 responses. The production of IgG2c in mice immunised with C18dMeBrar increased three-fold as compared to OVA alone, providing evidence that C18dMeBrar induces a Th1-biased immune response.

[1] = s.c. OVA 200 μg + adjuvant 0.3 μmol

6,6′-Di-O-(2-hydroxy-4-octabenzyloxybenzoyl)-α,α′-D-trehalose [9a]
activation of hMincle NFAT-GFP reporter cells (GFP by flow cytometry) (hMincle+FcRγ): strongly activated; also recorded: best able to activate hMincle | IL-1β production (wild-type GM-CSF BMDMs): significant production | IL-6 production (wild-type GM-CSF BMDMs): significant production | MIP-2 production (wild-type GM-CSF BMDMs): significant production | TNF production (wild-type GM-CSF BMDMs): significant production | cell count compared to TDB (C57BL/6 mice; all concentrations of OVA re-stimulation): significant increase in cell count | number of splenocytes as compared to OVA alone (C57BL/6 mice; [1]): significantly larger number of splenocytes | Th1 immune response / adjuvant activity in vivo (C57BL/6 mice; [1]): potent adjuvant activity in vivo; also recorded: strong Th1 recall response; also recorded: polarised immune response with a distinct Th1 profile | Th1 immune response / adjuvant activity in vivo (C57BL/6 mice; s.c. OVA 200 μg + adjuvant 0.3 μmol, listed as C18dMeBrar): stronger Th1 immune response | footpad swelling (C57BL/6 mice; s.c. OVA 200 μg + adjuvant 0.3 μmol, OVA challenge 100 μg/footpad): neither 9a nor TDB induced any | IL-17 production by splenocytes restimulated with OVA (C57BL/6 mice; s.c. OVA 200 μg + adjuvant 0.3 μmol, restimulation 10, 30 or 100 μg/mL OVA): neither 9a nor TDB induced any | antigen specific IFN-γ production, re-stimulating with 100 μg/mL of antigen (C57BL/6 mice; s.c. OVA 200 μg + adjuvant 0.3 μmol, splenocytes restimulated with 100 μg/mL OVA): significantly enhanced cytokine production | antigen specific IFN-γ production, all concentrations of OVA (C57BL/6 mice; s.c. OVA 200 μg + adjuvant 0.3 μmol, splenocytes restimulated with 10, 30 or 100 μg/mL OVA): trend towards increased | IgG1 antibody production (C57BL/6 mice; serum, ELISA): showed increases | IgG2b antibody production (C57BL/6 mice; serum, ELISA): showed increases | IgG2c antibody production (C57BL/6 mice; serum, ELISA): showed increases | production of IgG2c as compared to OVA alone (C57BL/6 mice; serum, ELISA): three-fold | production of OVA-specific IgG antibodies (C57BL/6 mice; serum, ELISA): elevated the production of IgG antibodies | production of OVA-specific IgG antibodies (C57BL/6 mice; serum, ELISA, listed as C18dMeBrar): only significant for C18dMeBrar
